112 molecules from a melting point compilation (Tetko et al.) can be followed below.

In general, melting point refers to the temperature, or range, at which the solid turns liquid. For the molecule `CC(C)(C)N(NC(=O)c1ccccc1)C(=O)c1cccc(C#N)c1`, the melting point was found to be 174 °C.

In turn, `CC(C)CCCC(C(=O)O)C1=CCC2(C)C(CCC3C4CCC(O)C4(C)CCC32)C1` (configuration not stated) came in with a melting point of 193 °C.

`Cn1nc(C(F)(F)F)c(C=O)c1Cl` came in with a melting point of 41 to 42 °C.

Regarding `CCC(Br)(CC)C(N)=O`, the melting point came out at 67 °C.

`Oc1nc(CCc2ccccc2)nn1-c1ccccc1` returned a melting point of 182 °C.

As for `CCc1ccccc1Nc1ccccc1CC`, the melting point turned out to be 29 °C.

For `O=CNC(Nc1ccc(Cl)c(Cl)c1)C(Cl)(Cl)Cl` (configuration not stated), the melting point came to 135 °C.

Turning to `CN(C)C(=S)NN`, the melting point lay within 149 to 153 °C.

Take `O=CNC1CC=CCC(NC=O)CC=CC1` (configuration not stated): the melting point lay within 289 to 290 °C.

With `COc1cc2c(cc1OC)OC(C)(C)C=C2`, the melting point stood at 46 °C.

On to `COc1cc(/C=N/N=C/c2ccc(OCc3ccccc3)c(OC)c2)ccc1OCc1ccccc1`, for which the melting point was 216 °C.

As for `Cc1c(C(=O)O)nnn1Cc1ccccc1`, the melting point lay in the range of 170 to 171 °C.

Take `Cc1ccc(C(=O)[C@@H]2CCCC[C@H]2C(=O)O)cc1` (relative stereo): the melting point fell in the range of 168 to 171 °C.

The molecule `Brc1nncs1` returned a melting point of 70 to 73 °C.

As to `CNc1ncc(C(F)(F)F)cc1[N+](=O)[O-]`, the melting point was in the range of 98 to 100 °C.

Molecule `CCc1cc2c(cc1C(C)=O)C(C)(C)CCC2(C)C` yielded a melting point of 46.5 °C.

In turn, `O=C1c2ccccc2C(=O)c2c1ccc([N+](=O)[O-])c2[N+](=O)[O-]` came in with a melting point of 341 °C.

On to `CC1(O)CSC(C)(O)CS1` (configuration not stated), for which the melting point is 64 to 65 °C.

In the case of `CN(C)c1ccc(C=O)c(F)c1C#N`, the melting point was in the range of 125 to 127 °C.

In the case of `C=CCc1c(N)c(C(C)=O)cc(C(C)=O)c1O`, the melting point lay within 99.5 to 102 °C.

The molecule `CC1(C)C(C(=O)c2ccccc2)=Nc2ccccc21` showed a melting point of 83 °C.

`O=C(OCC(=O)N1CCC[C@H]1C(=O)O)c1ccccc1` registered a melting point of 116 °C.

In turn, `O=C1c2ccccc2C(=O)C1c1cc(Cl)c([N+](=O)[O-])cc1[N+](=O)[O-]` had a melting point of 185 °C.

As to `COc1ccc2c(=O)cc(-c3ccccc3)oc2c1`, the melting point came out at 110 °C.

On to `CC1CCC(C)S1` (configuration not stated), for which the melting point is -89 °C.

As for `Cc1ccc(F)cc1C(N)=O`, the melting point lay within 120 to 122 °C.

In turn, `O=C(O)c1cccc(CSc2cccs2)c1` came in with a melting point of 108 to 110 °C.

Take `Cc1ccc(S(=O)(=O)NCCCC[C@H](N)C(=O)O)cc1`: the melting point fell in the range of 231 to 234 °C.

As for `CCOC(=O)C(C)(C)C(=O)OCC`, the melting point was -30.4 °C.

As for `CC(=O)Oc1ccccc1`, the melting point was -30 °C.

`COC(=O)c1cc(C)[nH]n1`: the melting point turned out to be 82 °C.

For `Cc1ccc(F)c(O)c1`, the melting point worked out at 32 °C.

Regarding `CNC(=O)Oc1cc(C(C)(C)C)cc(C(C)(C)C)c1`, the melting point is 103 °C.

Take `CCOP(=O)(OCC)On1nnc2ccccc2c1=O`: the melting point was 74 °C.

On to `NNC(=O)c1ccc2c(c1)OCO2`, for which the melting point was determined as 174 °C.

In turn, `C#CC(C)(C)Cl` gave a melting point of -61 °C.

Consider `COC(=O)c1ccc(C(=O)OC)nc1`, for which the melting point is 163 to 164 °C.

The molecule `COC(CCl)OC` returned a melting point of -73 °C.

In the case of `N#CCC(=O)c1ccc(N)cc1`, the melting point was found to be 159 °C.

For `O=C(O)c1cc2cc3c4c(c2oc1=O)CCCN4CCC3`, the melting point is 240 °C.

For the molecule `CC(Br)C(=O)c1ccc(Br)cc1` (configuration not stated), the melting point was in the range of 85 to 88 °C.

For the molecule `COc1cccc(CCC(=O)O)c1`, the melting point was determined as 45 °C.

`CC(C)(C)OC(=O)CN=C(c1ccccc1)c1ccccc1` had a melting point of 114 °C.

As for `CC(C)(C)c1ccc(C2CCC3(CC2)Cc2ccc(O)cc2C3)cc1` (configuration not stated), the melting point came to 156 °C.

`O=C(O)CCCCCCCCCCCO`: the melting point was determined as 86.5 °C.

Take `Cc1ccc(C(=O)NN)cc1`: the melting point was 117 °C.

The molecule `COC1C(O)C(C)OC(OC2C(Oc3cccc4c(O)c5c(=O)oc6ccc(C)c7c(=O)oc(c34)c5c67)OC(C)C(O)C2O)C1O` (configuration not stated) had a melting point of 185 °C.

On to `COC(=O)c1ccc2c(I)c[nH]c2c1`, for which the melting point is 150 °C.

As for `CC(=O)NCCc1ccccc1`, the melting point lay in the range of 48 to 52 °C.

`Brc1ccc(Br)s1`: the melting point was -6 °C.

The molecule `O=C(Oc1c(F)c(F)c(F)c(F)c1F)c1sccc1C1OCCO1` registered a melting point of 55.5 to 59.5 °C.

`CCCCN(CC)c1c([N+](=O)[O-])cc(C(F)(F)F)cc1[N+](=O)[O-]` showed a melting point of 66 °C.

`CC12CCC3C(CC=C4CC(Cl)CCC43C)C1CCC2=O` (configuration not stated) had a melting point of 157 °C.

Molecule `CCCCCC(=O)Nc1ccc(Cl)c(Cl)c1` came in with a melting point of 106 °C.

As to `CSC(SC)SC`, the melting point worked out at 16 °C.

For `ON=C1CCCc2c1nc(-c1ccccc1)n2O`, the melting point was in the range of 270 to 272 °C.

Consider `NNC(=O)COc1ccc(F)cc1`, for which the melting point turned out to be 125 °C.

`CSc1nc2cc(NCc3ccccc3Cl)ccc2[nH]1` gave a melting point of 207 to 209 °C.

Regarding `O=C(O)CCc1ccccc1`, the melting point was determined as 107 °C.

Molecule `OCc1ccc(-c2cccs2)s1` displayed a melting point of 51 to 54 °C.

In turn, `CC(=O)OC1CCC2(C)C(CC(=O)C3C2CCC2(C)C(OC(=O)c4ccccc4)CCC32)C1` (configuration not stated) came in with a melting point of 175 °C.

Molecule `Nc1ncc([N+](=O)[O-])cc1Br` came in with a melting point of 214 to 218 °C.

With `N#CC(c1ccc(O)cc1)N1CCOCC1` (configuration not stated), the melting point fell in the range of 148 to 150 °C.

Turning to `CCOC(=O)C(CCc1ccccc1)NC(C)C(=O)N1CCCC1C(=O)O` (configuration not stated), the melting point turned out to be 144 °C.

Molecule `CCOc1ccc(C=CC(=O)O)cc1` returned a melting point of 195 to 197 °C.

In turn, `Cc1cccc(C(=O)O)n1` displayed a melting point of 130 °C.

`CC1(c2ccccc2)CC(C(=NO)c2cc3ccccc3o2)C1` (configuration not stated) showed a melting point of 200 to 201 °C.

Molecule `CCOCCO` had a melting point of -70 °C.

On to `CCC(C)(C#N)N=NC(C)(C#N)CC` (configuration not stated), for which the melting point came out at 50 °C.

In turn, `FC(F)(F)c1ccc(-c2nc(CCl)cs2)cc1` returned a melting point of 80 to 85 °C.

For the molecule `FC(F)(F)c1ccc2cc[nH]c2c1`, the melting point worked out at 103 °C.

Consider `CCOC=C(C#N)S(=O)(=O)C(C)(C)C`, for which the melting point lay in the range of 103 to 105 °C.

`COc1ccc([N+](=O)[O-])cc1C(F)(F)F` yielded a melting point of 79 to 81 °C.

The molecule `COc1nsc(N)n1` returned a melting point of 172 to 173 °C.

Molecule `Cc1nn(C)c(Cl)c1S(=O)(=O)Cl` had a melting point of 35 °C.

The molecule `O=S(=O)(c1ccccc1)n1cc(Br)c2ccccc21` gave a melting point of 120 to 121 °C.

Molecule `NC(=O)[C@@H]1CCCN1` yielded a melting point of 97 to 102 °C.

`Cc1cc2ccccc2oc1=O` displayed a melting point of 91 °C.

The molecule `O=C(O)CSCCSCC(=O)O` showed a melting point of 110 °C.

Take `O=CNCC(=O)O`: the melting point was 149 °C.

Molecule `COc1ccc(C(=O)Oc2ccc(/C=C/C(=O)c3ccccc3)cc2)cc1` came in with a melting point of 156 °C.

Take `NNC(=O)c1cccc(OCc2ccccc2)c1`: the melting point was in the range of 113 to 115 °C.

For the molecule `Cc1cc(Sc2ccc(C(=O)O)cc2[N+](=O)[O-])c(C)cc1Cl`, the melting point is 243 to 248 °C.

Regarding `Cc1cc(N=Nc2ccc(N=Nc3ccccc3)cc2)c(C(C)C)cc1N=Nc1ccc(N=Nc2ccccc2)cc1`, the melting point amounted to 226 °C.

Consider `CCC(C)C(=O)OC1CCC=C2C=CC(C)C(CCC3CC(O)CC(=O)O3)C21` (configuration not stated), for which the melting point was found to be 152 °C.

In turn, `CNC[C@H](O)[C@@H](O)[C@H](O)[C@H](O)CO` came in with a melting point of 128 °C.

For the molecule `CC(=O)OC1CC2(O)C(C)C(=O)C3(C(O)CC4C(C)(C)CCC(OC(C)=O)C4(C)C13)C2O` (configuration not stated), the melting point was found to be 234 °C.

Regarding `Cc1ccc(C#N)cc1F`, the melting point is 47 °C.

Molecule `Cc1cc(=O)oc2cc(OCC(=O)Cl)ccc12` gave a melting point of 129 °C.

With `CCOC(=O)c1cc2cc(Br)ccc2o1`, the melting point was 69 to 72 °C.

Consider `O=C(O)c1ccccc1Cc1ccccc1`, for which the melting point came out at 118 °C.

With `O=c1cc(C(F)(F)F)c2cc3c4c(c2o1)CCCN4CCC3`, the melting point was 167 to 168 °C.

`O=C1OC(c2ccc([N+](=O)[O-])cc2)Cc2ccccc21` (configuration not stated) gave a melting point of 184 °C.

The molecule `CCCCCCCCCCCC(=O)OCc1ccccc1` yielded a melting point of 8.5 °C.

In the case of `Nc1ccc(Br)c([N+](=O)[O-])c1`, the melting point fell in the range of 128 to 132 °C.

Consider `O=C(Cc1ccccc1)c1cc2c(cc1Br)OCCO2`, for which the melting point lay within 142 to 144 °C.

`O=[N+]([O-])c1cccnc1NC1CC1` came in with a melting point of 61 to 63 °C.

`NC(=O)c1nn(-c2ccccc2)c2ncnc(N)c12`: the melting point was found to be 295 °C.

`O=C(CN1CCN(Cc2ccc3c(c2)OCO3)CC1)N1c2ccccc2Sc2ccccc21` returned a melting point of 142 °C.

`COCC(CCC(=O)OC)N1CC=CC1` (configuration not stated) came in with a melting point of 144 to 146 °C.

Take `COS(=O)(=O)Cl`: the melting point was -70 °C.

In the case of `CC1=C(C(=O)OC(C)C)C(c2cccc([N+](=O)[O-])c2)NC(=S)N1` (configuration not stated), the melting point was 225 °C.

For `N#Cc1sc2nc(-c3ccccc3)cc(C(F)(F)F)c2c1N`, the melting point lay in the range of 236 to 238 °C.

`Cc1ccc(S(=O)(=O)OCCc2coc3ccccc23)cc1` had a melting point of 61 to 62 °C.

On to `CCCn1c(C(=O)O)cc2c(=O)n(C)c(=O)n(C)c21`, for which the melting point was 139 °C.

In the case of `Cc1ccc2c(c1)C(=O)CC2`, the melting point worked out at 58 °C.

Molecule `CCCCCCS(=O)(=O)O` yielded a melting point of 16.1 °C.

As for `COCc1cc(O)nc(SC)n1`, the melting point was in the range of 195 to 196 °C.

Take `CCCCCCCCCCCCCCCCCC(N)=O`: the melting point came out at 109 °C.

The molecule `O=C(O)c1cnccc1C(F)(F)F` came in with a melting point of 150 °C.

In turn, `Nc1c([N+](=O)[O-])cc(F)c(F)c1F` showed a melting point of 46 to 48 °C.

Regarding `O=C(Cl)c1ccc(-c2cccs2)s1`, the melting point lay within 73.3 to 74.4 °C.
